The record followed here is patent publication US20210277015A1, “OGA INHIBITOR COMPOUNDS” (Janssen Pharmaceutica NV, priority 2018, published 2021).

In test [1] the target is T1, recombinant human Meningioma Expressed Antigen 5 (MGEA5), also referred to as O-GlcNAcase (OGA) (Homo sapiens, UniProt O60502).
T1 construct: Full length OGA enzyme was purchased at OriGene (cat #TP322411); purchased OriGene TP322411
T1 sequence (O60502 1-916): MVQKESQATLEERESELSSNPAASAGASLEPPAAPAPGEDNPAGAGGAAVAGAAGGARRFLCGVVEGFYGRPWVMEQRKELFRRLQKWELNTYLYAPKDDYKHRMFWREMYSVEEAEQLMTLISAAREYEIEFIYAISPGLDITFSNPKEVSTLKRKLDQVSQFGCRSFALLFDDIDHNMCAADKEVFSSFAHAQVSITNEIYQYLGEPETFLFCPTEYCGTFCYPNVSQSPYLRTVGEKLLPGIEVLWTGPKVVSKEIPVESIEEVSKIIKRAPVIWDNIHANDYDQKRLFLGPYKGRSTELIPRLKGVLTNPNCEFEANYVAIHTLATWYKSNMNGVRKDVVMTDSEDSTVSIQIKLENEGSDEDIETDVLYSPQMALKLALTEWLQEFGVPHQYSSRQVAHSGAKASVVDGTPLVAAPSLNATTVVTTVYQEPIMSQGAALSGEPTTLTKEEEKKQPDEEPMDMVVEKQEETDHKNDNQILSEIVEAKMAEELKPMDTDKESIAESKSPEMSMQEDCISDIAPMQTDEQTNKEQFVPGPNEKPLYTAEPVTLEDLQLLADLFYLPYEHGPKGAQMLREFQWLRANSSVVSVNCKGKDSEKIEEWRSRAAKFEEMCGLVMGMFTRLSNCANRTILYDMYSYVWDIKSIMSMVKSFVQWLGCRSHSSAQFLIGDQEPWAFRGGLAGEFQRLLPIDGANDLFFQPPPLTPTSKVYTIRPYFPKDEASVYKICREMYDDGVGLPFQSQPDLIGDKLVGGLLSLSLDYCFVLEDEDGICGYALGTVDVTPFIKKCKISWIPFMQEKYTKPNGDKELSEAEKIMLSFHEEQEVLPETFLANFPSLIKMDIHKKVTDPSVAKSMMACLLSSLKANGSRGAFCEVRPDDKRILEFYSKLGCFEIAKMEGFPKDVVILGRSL
The test is described as follows: OGA biochemical assay (inhibition of FM-GlcNAc hydrolysis, fluorescence). The note with it: FM-GlcNAc substrate; for IC50: 6 h at room temperature, read-out: Enzymatic hOGA, pIC50 (converted); for Enzymatic Emax (%) / Emax: maximal effect; for Emax: read-out: Enzymatic Emax (%). The method in brief:
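Full-length human OGA (2 nM) pre-incubated 60 min at room temperature with compound, then FM-GlcNAc (100 µM final) added in citrate/phosphate buffer pH 7.2 with 0.005% Tween-20; 6 h at room temperature, stopped with carbonate pH 11.0. Fluorescein read at 485/538 nm; IC50 and Hill coefficient from curve fit.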

The next test addresses T2, OGA (Homo sapiens, UniProt O60502).
T2 construct: endogenous in cells; host or cells: HEK293 cells inducible for P301L mutant human Tau (isoform 2N4R)
T2 sequence (O60502 1-916): T1 sequence (O60502 1-916)
The experiment in a line: OGA cellular assay (ICC detection of O-GlcNAcylated proteins in HEK293 cells inducible for P301L mutant human Tau). The format is cell-based. The conditions noted are these: for EC50 / Cellular Emax (%) / Cellular hOGA; pEC50: HEK293 cells inducible for P301L mutant human Tau; for EC50 / Cellular hOGA; pEC50: 6 hours incubation, ICC O-GlcNAcylation; for EC50: read-out: Cellular hOGA, pEC50 (converted); for Cellular Emax (%) / Emax: maximum defined by Thiamet G at 200 uM; for Emax: HEK293, HEK293 cells inducible for P301L mutant human Tau. The procedure:
HEK293 cells inducible for P301L mutant human Tau (isoform 2N4R) were established at Janssen. Thiamet-G was used for both plate validation (high control) and as reference compound (reference EC50 assay validation). OGA inhibition is evaluated through the immunocytochemical (ICC) detection of O-GlcNAcylated proteins by the use of a monoclonal antibody (CTD110.6; Cell Signaling, #9875) detecting O-GlcNAcylated residues as previously described (Dorfmueller et al. 2010 Chemistry & biology, 17:1250). Inhibition of OGA will result in an increase of O-GlcNAcylated protein levels resulting in an increased signal in the experiment. Cell nuclei are stained with Hoechst to give a cell culture quality control and a rough estimate of immediate compounds toxicity, if any. ICC pictures are imaged with a Perkin Elmer Opera Phenix plate microscope and quantified with the provided software Perkin Elmer Harmony 4.1.
Cells were propagated in DMEM high Glucose (Sigma, #D5796) following standard procedures. 2 days before the cell assay cells are split, counted and seeded in Poly-D-Lysine (PDL) coated 96-wells (Greiner, #655946) plate at a cell density of 12,000 cells per cm^2 (4,000 cells per well) in 100 μl of Assay Medium (Low Glucose medium is used to reduce basal levels of GlcNAcylation) (Park et al. 2014 The Journal of biological chemistry 289:13519). At the day of compound test medium from assay plates was removed and replenished with 90 μl of fresh Assay Medium. 10 μl of compounds at a 10 fold final concentration were added to the wells. Plates were centrifuged shortly before incubation in the cell incubator for 6 hours. DMSO concentration was set to 0.2%. Medium is discarded by applying vacuum. For staining of cells medium was removed and cells washed once with 100 μl D-PBS (Sigma, #D8537). From next step onwards unless other stated assay volume was always 50 μl and incubation was performed without agitation and at room temperature. Cells were fixed in 50 μl of a 4% paraformaldehyde (PFA, Alpha aesar, #043368) PBS solution for 15 minutes at room temperature. […] Before analysis samples were washed 2 times manually for 5 minutes in ICC base buffer.
Imaging is performed using Perkin Elmer Phenix Opera using a water 20× objective and recording 9 fields per well. Intensity readout at 488 nm is used as a measure of O-GlcNAcylation level of total proteins in wells. To assess potential toxicity of compounds nuclei were counted using the Hoechst staining. IC50-values are calculated using parametric non-linear regression model fitting. As a maximum inhibition Thiamet G at a 200 uM concentration is present on each plate. In addition, a concentration response of Thiamet G is calculated on each plate.

Consider `Cc1cc(O[C@H]2CCN(C(C)c3ccc4c(n3)OCCO4)C2)cc(C)n1` (single isomer, unassigned) [Product 71], for which, in test [1], the IC50 was 794 nM and the “Enzymatic Emax (%)” value amounted to 99%. Moreover, on OGA, the EC50 is greater than 1000 nM and the “Cellular Emax (%)” value is recorded as 9%.

Consider `Cc1cc(O[C@H]2CCN(C(C)c3ccc4c(n3)OCCO4)C2)cc(C)n1` (single isomer, unassigned) [Product 72], for which, in test [1], the IC50 was greater than 10000 nM and the “Enzymatic Emax (%)” value was 21%. On OGA, the “Cellular hOGA; pEC50” value was less than 6 and the “Cellular Emax (%)” value is reported as −8%.

As to `Cc1cc(O[C@@H]2CCN(C(C)c3ccc4c(n3)OCCO4)C2)cc(C)n1` (single isomer, unassigned) [Product 74], in test [1], the IC50 was 7940 nM and the “Enzymatic Emax (%)” value turned out to be 50%. Further, at OGA, the EC50 is greater than 1000 nM and the “Cellular Emax (%)” value was −9%.

Regarding `Cc1cc(O[C@@H]2CCN(C(C)c3ccc4c(n3)OCCO4)C2)cc(C)n1` (single isomer, unassigned) [Product 75], in test [1], the IC50 was 39.8 nM and the “Enzymatic Emax (%)” value is reported as 99%. Further, on OGA, the “Cellular hOGA; pEC50” value is given as less than 6 and the “Cellular Emax (%)” value came to 34%.

The term Emax denotes the size of the effect at its maximum, as opposed to the concentration needed. As to `COc1cc(C[C@H]2CCN(C(C)c3nc4c(cc3F)CCO4)C2)cc(C)n1` (single isomer, unassigned) [Product 84], in test [1], the IC50 was 3.16 nM and the Emax was determined as 102%. For the same compound, on OGA, the Emax is 100% and the EC50 was 15.8 nM.

As for `COc1cc(CC2(C)CCN(C(C)c3ccc4c(n3)OCCO4)C2)cc(C)n1` (single isomer, unassigned) [Product 95], in test [1], the IC50 was 79.4 nM and the Emax came out at 100%. In addition, on OGA, the Emax amounted to 39% and the EC50 was greater than 1000 nM.

As to `Cc1cc(OC[C@]2(C)CCN([C@H](C)c3ccc4c(n3)OCCO4)C2)cc(C)n1` (single isomer, unassigned) [Product 100], in test [1], the IC50 is 2000 nM and the “Enzymatic Emax (%)” value came out at 87%. Also, on OGA, the EC50 is greater than 1000 nM and the “Cellular Emax (%)” value is reported as −5%.

As to `Cc1cc(OC[C@]2(C)CCN([C@H](C)c3ccc4c(n3)OCCO4)C2)cc(C)n1` (single isomer, unassigned) [Product 101], in test [1], the IC50 was greater than 10000 nM and the “Enzymatic Emax (%)” value is reported as 13%. Moreover, at OGA, the “Cellular hOGA; pEC50” value is on record as less than 6 and the “Cellular Emax (%)” value is −4%.

As for `Cc1cc(OC[C@]2(C)CCN([C@H](C)c3ccc4c(n3)OCCO4)C2)cc(C)n1` (single isomer, unassigned) [Product 102], in test [1], the IC50 is 398 nM and the “Enzymatic Emax (%)” value turned out to be 93%. Further, at OGA, the “Cellular hOGA; pEC50” value is recorded as less than 6 and the “Cellular Emax (%)” value came out at 7%.

Consider `Cc1cc(OC[C@]2(C)CCN([C@H](C)c3ccc4c(n3)OCCO4)C2)cc(C)n1` (single isomer, unassigned) [Product 103], for which, in test [1], the IC50 is greater than 10000 nM and the “Enzymatic Emax (%)” value amounted to 29%. For the same compound, at OGA, the “Cellular hOGA; pEC50” value is listed as less than 6 and the “Cellular Emax (%)” value is on record as −5%.

Consider `Cc1cc(C[C@@H]2CCN([C@H](C)c3ccc4c(n3)OCCO4)C2)cc(C)n1` (single isomer, unassigned) [Product 104], for which, in test [1], the IC50 was 63.1 nM and the Emax came to 100%. For the same compound, at OGA, the EC50 was 631 nM and the “Cellular Emax (%)” value is 51%.

`Cc1cc(C[C@@H]2CCN([C@H](C)c3ccc4c(n3)OCCO4)C2)cc(C)n1` (single isomer, unassigned) [Product 105]: in test [1], the IC50 was 794 nM and the “Enzymatic Emax (%)” value is 91%. At OGA, the EC50 was greater than 1000 nM and the “Cellular Emax (%)” value worked out at 6%.

As for `COc1cc(C[C@@H]2CCN([C@H](C)c3ccc4c(n3)OCCO4)C2)cc(C)n1` (single isomer, unassigned) [Product 106], in test [1], the IC50 is 79.4 nM and the Emax came out at 100%. Besides, the “Cellular Emax (%)” value on OGA turned out to be 47%.

Turning to `COc1cc(C[C@@H]2CCN([C@H](C)c3ccc4c(n3)OCCO4)C2)cc(C)n1` (single isomer, unassigned) [Product 107], in test [1], the IC50 was 1260 nM and the “Enzymatic Emax (%)” value came to 90%. Further, at OGA, the EC50 was greater than 1000 nM and the “Cellular Emax (%)” value was −6%.

Regarding `COc1cc(C[C@H]2CN([C@H](C)c3ccc4c(n3)OCCO4)C[C@@H]2C)cc(C)n1` (stereo in doubt) [Product 121], in test [1], the IC50 was 50.1 nM and the Emax came out at 99%. At OGA, the Emax stood at 47% and the EC50 was greater than 1000 nM.

Take `COc1cc(C[C@@H]2CN([C@H](C)c3ccc4c(n3)OCCO4)C[C@H]2C)cc(C)n1` (stereo in doubt) [Product 122]: the Emax in test [1] came out at 49%. Besides, at OGA, the Emax is -7% and the EC50 is greater than 1000 nM.

Consider `COc1cc(C[C@H]2CN([C@@H](C)c3ccc4c(n3)OCCO4)C[C@@H]2C)cc(C)n1` (stereo in doubt) [Product 123], for which, in test [1], the IC50 was 126 nM and the Emax was found to be 100%. In addition, on OGA, the Emax turned out to be 47% and the EC50 was roughly 1000 nM.

Regarding `COc1cc(C[C@@H]2CN([C@@H](C)c3ccc4c(n3)OCCO4)C[C@H]2C)cc(C)n1` (stereo in doubt) [Product 124], in test [1], the IC50 was greater than 10000 nM and the Emax was 40%. Further, on OGA, the Emax was -3% and the EC50 was greater than 1000 nM.

In the case of `Cc1cc(C[C@H]2CCN(C(C)c3ccc4c(n3)OCCO4)C2)cc(C(F)(F)F)n1` (stereo partly drawn) [Product 5], in test [1], the IC50 was 126 nM and the Emax is 100%. In addition, the Emax on OGA was 45%.

For the compound `Cc1cc(C[C@H]2CCN(C(C)c3ccc4c(c3)OCC4)C2)cc(C(F)(F)F)n1` (stereo partly drawn) [Product 6], in test [1], the IC50 is 79.4 nM and the Emax came to 103%. Also, on OGA, the Emax is 47% and the EC50 was greater than 1000 nM.

For the compound `Cc1cc(C[C@H]2CCN(C(C)c3cc4c(cc3F)OCCO4)C2)cc(C(F)(F)F)n1` (stereo partly drawn) [Product 7], in test [1], the IC50 is 20 nM and the Emax was found to be 102%. For the same compound, at OGA, the Emax came to 79% and the EC50 is 398 nM.
